Values joined by “and” are separate entries in the source; they are usually repeats but may differ in a detail not shown here. Identical values can stand only once. “Also recorded” adds a separate entry of the source.
Experiments:
P2X4 receptors = target: T1, P2X4 receptors (Homo sapiens, UniProt Q99571); assay: Confocal imaging of Alexa-647-ATP labelling, P2X4-expressing cells; assay type: binding; conditions: HEK 293T cells expressing P2X4, data not shown
T1 construct: expressed in transfected cells; host or cells: HEK 293T
T1 sequence (Q99571 1-388): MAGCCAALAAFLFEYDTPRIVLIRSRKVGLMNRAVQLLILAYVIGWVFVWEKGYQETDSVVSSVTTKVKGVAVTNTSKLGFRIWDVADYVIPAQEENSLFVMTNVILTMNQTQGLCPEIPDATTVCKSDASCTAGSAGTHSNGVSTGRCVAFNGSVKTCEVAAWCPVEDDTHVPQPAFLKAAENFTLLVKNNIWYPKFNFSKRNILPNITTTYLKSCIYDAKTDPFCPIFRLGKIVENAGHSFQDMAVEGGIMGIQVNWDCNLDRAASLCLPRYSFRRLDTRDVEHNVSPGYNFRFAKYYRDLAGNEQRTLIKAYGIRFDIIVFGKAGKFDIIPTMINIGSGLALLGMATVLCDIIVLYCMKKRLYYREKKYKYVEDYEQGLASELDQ

[1] = target: P2X1 with N-terminus substituted by that of P2X2 receptor; design: method as in Rettinger and Schmalzing, 2004; Bhargava et al., 2013; conditions: desensitisation slowed by P2X2 N-terminus substitution; ref Rettinger and Schmalzing, 2004; Bhargava et al., 2013; cited from earlier work
P2X7 receptors = target: T2, P2X7 receptors (Homo sapiens, UniProt Q99572); assay: Confocal imaging of Alexa-647-ATP labelling, P2X7-expressing cells; assay type: binding; conditions: HEK 293T cells expressing P2X7, data not shown
T2 construct: expressed in transfected cells; host or cells: HEK 293T
T2 sequence (Q99572 1-595): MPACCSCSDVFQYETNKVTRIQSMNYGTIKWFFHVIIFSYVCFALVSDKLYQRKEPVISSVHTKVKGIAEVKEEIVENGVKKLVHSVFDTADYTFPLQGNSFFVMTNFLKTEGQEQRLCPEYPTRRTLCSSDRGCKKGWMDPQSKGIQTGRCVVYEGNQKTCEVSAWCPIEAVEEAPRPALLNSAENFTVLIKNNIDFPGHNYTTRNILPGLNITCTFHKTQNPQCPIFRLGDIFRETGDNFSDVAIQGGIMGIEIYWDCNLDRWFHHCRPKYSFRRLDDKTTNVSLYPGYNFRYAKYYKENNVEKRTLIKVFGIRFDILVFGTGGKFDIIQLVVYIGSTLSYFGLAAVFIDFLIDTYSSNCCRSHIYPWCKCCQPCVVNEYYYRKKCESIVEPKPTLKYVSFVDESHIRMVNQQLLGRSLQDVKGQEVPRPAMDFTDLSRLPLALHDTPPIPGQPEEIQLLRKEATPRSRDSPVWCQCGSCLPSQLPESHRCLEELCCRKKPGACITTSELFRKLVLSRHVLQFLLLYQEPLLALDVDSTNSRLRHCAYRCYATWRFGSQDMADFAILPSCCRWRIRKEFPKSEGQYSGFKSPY

[2] = test system: non-induced HEK 293T cells; assay: Confocal imaging of Alexa-647-ATP labelling on non-induced cells; assay type: binding; conditions: 150 nM Alexa-647-ATP
Text: (§1) Live cells were routinely visualised in phosphate buffered saline (PBS (mM); 155 NaCl, 3.0 Na2HPO4, 1.0 KH2PO4, pH 7.4). Static and time-lapse images were collected using a FV300 laser-scanning confocal microscope with either an Olympus UplanFLN 40 × NA1.30 oil immersion objective and a 60 μm confocal aperture, or a PlanApo 60x NA1.42 oil immersion objective and a 60 μm confocal aperture. Images were exported to ImageJ v1.47 (National Institutes of Health, USA) and the Multi Measure plugin (Optinav Inc, WA, USA) used for analysing regions of interest.

P2X1 receptors [3] = target: T3, P2X1 receptors (Homo sapiens, UniProt P51575); assay: Confocal imaging of Alexa-647-ATP cell-surface labelling and competition by pre-treatment
T3 sequence (P51575 1-399): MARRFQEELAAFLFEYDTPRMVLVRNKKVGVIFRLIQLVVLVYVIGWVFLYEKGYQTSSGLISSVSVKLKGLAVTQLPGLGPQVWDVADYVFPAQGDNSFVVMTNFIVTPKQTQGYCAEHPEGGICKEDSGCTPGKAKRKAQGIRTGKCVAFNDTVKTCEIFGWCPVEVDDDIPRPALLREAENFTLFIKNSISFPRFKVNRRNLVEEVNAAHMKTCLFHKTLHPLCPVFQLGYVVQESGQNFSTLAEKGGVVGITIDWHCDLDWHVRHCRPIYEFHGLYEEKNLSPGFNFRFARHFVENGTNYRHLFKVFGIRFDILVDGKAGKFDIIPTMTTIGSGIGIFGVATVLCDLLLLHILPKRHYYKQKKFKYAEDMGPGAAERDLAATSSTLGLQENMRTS
Text: as §1

P2X1 receptors [4] = target: T3, P2X1 receptors; assay: Confocal microscopy kinetic analysis of Alexa-647-ATP binding at the cell surface; design: expressed in transfected cells
Protocol: Kinetic parameters were determined according to the following model of a simple bimolecular binding scheme:(2) L+R⇌koffkonLR where L is the free ligand concentration, R is receptor concentration, LR is the ligand–receptor complex and kon and koff are the microscopic association and dissociation rate constants. In a simple scheme such as this, the equilibrium dissociation constant (Kd) is equal to the ratio of dissociation to association rate constants, such that:(3) Kb=k−1/k+1
According to a one site binding model of the type shown, the observed rates of association and dissociation can be used to estimate k+1 and k−1:(4) 1/τoff=k−1 and(5) 1/τon=k+1[L]+k−1 where τon refers to the rate at which fluorescence increases, τoff refers to the rate that fluorescence decreases and [L] is concentration of the ligand used.
Intracellular and background fluorescence was also routinely monitored as a control.

P2X1 receptors [5] = target: T3, P2X1 receptors; assay: Fluorometric microplate assay with voltage-sensitive (membrane potential) dye, FlexStation III; assay type: cell-based; design: expressed in transfected cells; conditions: for Hill slope (agonist response): agonist concentration-response; for EC50 / pEC50: agonist, peak fluorescence, HEK 293T cells stably expressing P2X1; for Hill slope (inhibition): inhibition of 10 μM ATP responses
Protocol: In brief, fragments were assessed for both agonist and antagonist activities using HEK 293T cells stably expressing doxycycline-inducible P2X1 receptors incubated for 45 min with 50 μl of a fluorescent dye sensitive to membrane potential (dye FLIPR Membrane Potential Assay Kit, Molecular Devices, Wokingham, UK) that was dissolved in buffer (mM: 115 NaCl, 1 KCl, 1 MgCl2, 1 CaCl2, 10 HEPES, 10 D-Glucose, pH 7.4). Dye-loaded cells were transferred to a FlexStation III (Molecular Devices) where compound applications were made without removing the dye. At recording intervals of 1.2 s, baseline fluorescence was recorded for 20 s, followed by a further 60 s after the addition of compounds. Ultimately two applications were made to the same cells. In the first, agonist activity was assessed by adding 50 μl novel fragment (final concentration = 300 μM) to each well. Following the completion of the first application, a second 50 μl application of 30 μM ATP (final concentration = 10 μM) was then added to the same cells. A response upon the first (fragment) application and an absence of a response on the second (ATP) application indicated agonist activity followed by inhibition as a result of receptor desensitisation.
In addition to testing fragments, the reproducibility of each experiment was assessed by including an ATP concentration–response in the first column and a saline control in the last column of the first application. […] The saline control in the first application also meant that an ATP concentration–response could be performed at the end of the second application. This allowed cell viability to be assessed by comparing the ATP concentration–response at the start of the first application with the ATP concentration–response at the end of the second application. […] Measurements from these concentration-dependence experiments were fitted using Eq. (1) below.
Measurements from the FlexStation III were recorded using the integrated software SoftMax Pro v5.4.5 (Molecular Devices). Analysis of concentration-dependence was performed with GraphPad Prism v5.00 (GraphPad Software, San Diego, CA, USA). Peak fluorescence was measured at a range of ligand concentrations and normalised to the maximum peak fluorescence for the same experiment. The mean and standard error of the mean (S.E.M.) for a series of measurements was plotted against agonist or antagonist concentration and iteratively fitted to the following equation:(1) y=Imin+Fmax−Fmin/1+10^((logR50-x)^nH) where Fmin is the baseline fluorescence, Fmax is the peak fluorescence, R50 is the concentration of ligand needed to generate a half-maximal response, x is the ligand concentration and nH is the Hill slope.

[6] = test system: Untransfected HEK 293T cells; assay: Fluorometric microplate assay with voltage-sensitive dye on untransfected cells; assay type: cell-based
[7] = pre-treated with 5 mM, 150 nM Alexa-647-ATP

| Molecule | Hill slope (agonist response) (P2X1 receptors [5]) | EC50 (P2X1 receptors [5]) [µM] | pEC50 (P2X1 receptors [5]) | Alexa-647-ATP cell-surface fluorescence after pre-treatment (P2X1 receptors [3]; [7]) | EC50 [1] | fluorescent response to agonist [6] | Hill slope (inhibition) (P2X1 receptors [5]) | other results |
| --- | --- | --- | --- | --- | --- | --- | --- | --- |
| Alexa-647-ATP | 1.1 ± 0.1 | 5.75 | 5.24 ± 0.04 | – | low nanomolar | – | – | cell-surface fluorescence (P2X4 receptors): could not detect any measureable fluorescence; cell-surface fluorescence (P2X7 receptors): could not detect any measureable fluorescence; cell-surface fluorescence [2]: not present; cell-surface fluorescence after addition of ligand (P2X1 receptors [3]; 150 nM Alexa-647-ATP, P2X1-expressing HEK 293T cells): rapid increase in cell-surface fluorescence; cell permeability (fluorescence inside labelled cells) (P2X1 receptors [3]; live HEK 293T cells, confocal): not cell-permeable; kobs (P2X1 receptors [4]; 0.5 μM Alexa-647-ATP): 0.79 ± 0.08 min⁻¹; kobs (P2X1 receptors [4]; 5 μM Alexa-647-ATP): 5.86 ± 0.58 min⁻¹; koff, direct measurement of dissociation (P2X1 receptors [4]; after rapid washing with PBS, mono-exponential fits): 0.00667 s⁻¹ and 0.00678 s⁻¹; association rate (kon) (P2X1 receptors [4]; slope of 1/τon (kobs) vs concentration): 1.142e+06 M⁻¹ s⁻¹; dissociation rate (koff) (P2X1 receptors [4]; y-axis intercept of 1/τon (kobs) vs concentration): 0.136 s⁻¹ |
| Cc1ccc(C(=O)Nc2ccc(S(=O)(=O)O)c3cc(S(=O)(=O)O)cc(S(=O)(=O)O)c23)cc1NC(=O)c1cccc(NC(=O)Nc2cccc(C(=O)Nc3cc(C(=O)Nc4ccc(S(=O)(=O)O)c5cc(S(=O)(=O)O)cc(S(=O)(=O)O)c45)ccc3C)c2)c1 [suramin] | – | – | – | – | – | – | 1.5 ± 0.7 | Alexa-647-ATP cell-surface fluorescence after pre-treatment (P2X1 receptors [3]; pre-treatment, concentration not printed, 150 nM Alexa-647-ATP): still seen; also recorded: no competition was seen; Alexa-647-ATP cell-surface fluorescence after pre-treatment (P2X1 receptors [3]; pre-treatment, concentration not printed, 150 nM Alexa-647-ATP, listed as Suramin): did not alter cell-surface fluorescence |
| O=C(Nc1cc(C(=O)Nc2ccc(S(=O)(=O)O)cc2S(=O)(=O)O)cc(C(=O)Nc2ccc(S(=O)(=O)O)cc2S(=O)(=O)O)c1)Nc1cc(C(=O)Nc2ccc(S(=O)(=O)O)cc2S(=O)(=O)O)cc(C(=O)Nc2ccc(S(=O)(=O)O)cc2S(=O)(=O)O)c1 [NF449] | – | – | – | – | – | – | 1.1 ± 0.2 | Alexa-647-ATP cell-surface fluorescence after pre-treatment (P2X1 receptors [3]; pre-treated with 250 μM, 150 nM Alexa-647-ATP): not present; also recorded: not seen |

Further lines, with some results ahead:

| Hill slope (agonist response) (P2X1 receptors [5]) | EC50 (P2X1 receptors [5]) [µM] | pEC50 (P2X1 receptors [5]) | Alexa-647-ATP cell-surface fluorescence after pre-treatment (P2X1 receptors [3]; [7]) | Molecule | EC50 [1] | fluorescent response to agonist [6] | Hill slope (inhibition) (P2X1 receptors [5]) | other results |
| --- | --- | --- | --- | --- | --- | --- | --- | --- |
| 0.9 ± 0.2 | 5.49 | 5.26 ± 0.09 | not present | Nc1ncnc2c1ncn2[C@@H]1O[C@H](COP(=O)(O)OP(=O)([O-])OP(=O)([O-])O)[C@@H](O)[C@H]1O.[Na+].[Na+] [NaATP] | – | did not respond | – | – |
| 1.0 ± 0.1 | 14.1 | 4.85 ± 0.07 | – | Nc1ncnc2c1ncn2[C@@H]1O[C@H](COP(=O)(O)OP(=O)([O-])OP(=O)([O-])O)[C@@H](O)[C@H]1O.[Mg+2] [MgATP] | – | did not respond | – | – |
| – | – | – | not seen | Nc1ncnc2c1ncn2[C@@H]1O[C@H](COP(=O)(O)OP(=O)(O)OP(=O)(O)O)[C@@H](O)[C@H]1O [ATP] | low nanomolar | – | – | – |

Source: article PMC4728187, “A fluorescent approach for identifying P2X1 ligands” (Neuropharmacology, 2015)
